Test results as given in patent publication US20260364184A1, “COMPOUND BASED ON OXOISOINDOLINYL-SUBSTITUTED TETRAHYDROPYRIMIDINE-DIONE AND USE THEREOF” (GLUETACS THERAPEUTICS (SHANGHAI) CO., LTD., priority 2023, published 2026).

These compounds were tested against T1, IRAK4 (Homo sapiens, UniProt Q9NWZ3) (assay: Western blot degradation of IRAK4). Settings: hPBMC Cell; 24 hours.
T1 construct: expression of target proteins in cells; endogenous in cells
T1 sequence (Q9NWZ3 1-460): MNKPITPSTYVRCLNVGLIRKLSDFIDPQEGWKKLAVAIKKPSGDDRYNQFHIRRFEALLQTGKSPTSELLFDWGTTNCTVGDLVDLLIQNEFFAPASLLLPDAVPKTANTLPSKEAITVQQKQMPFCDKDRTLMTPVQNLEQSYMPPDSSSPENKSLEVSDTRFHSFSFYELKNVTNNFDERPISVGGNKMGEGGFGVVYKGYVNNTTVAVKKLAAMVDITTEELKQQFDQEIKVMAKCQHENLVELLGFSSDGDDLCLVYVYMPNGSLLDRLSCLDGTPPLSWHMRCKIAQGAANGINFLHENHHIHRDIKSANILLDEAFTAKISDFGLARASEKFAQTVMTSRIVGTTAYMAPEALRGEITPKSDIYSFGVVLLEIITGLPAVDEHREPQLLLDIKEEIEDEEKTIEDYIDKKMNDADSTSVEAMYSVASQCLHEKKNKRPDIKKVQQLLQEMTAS
Format: cell-based
Protocol: Conventional Western blot assay was performed to evaluate the effects of the compounds of the present disclosure on the expression of target proteins in cells.
(1) Cell Seeding and Protein Harvesting: The selected cells were processed according to the cell seeding procedure and protein harvesting procedure in Table II-2.
(2) To the collected supernatant, 5×SDS sample loading buffer was added, followed by denaturation at 95 °C for 5 minutes. The denatured samples were then separated by SDS-PAGE electrophoresis on a polyacrylamide gel. Proteins were transferred to a nitrocellulose membrane (0.45 μm NC membrane), blocked with blocking buffer at room temperature for 1 hour, and subjected to antibody incubation and development procedures according to the antibody manufacturer's instructions (Cell Signaling Technology).
Half-Maximal Degradation Concentration value (the drug concentration required for degrading proteins by 50%, abbreviated as DC50) reads method: comparing the grayscale values of Western blot bands from drug-treated samples with those from blank DMSO-treated controls, and identifying the drug concentration range at which the grayscale value is half that of the DMSO-treated control bands.
DC50 values can be calculated using ImageJ software to measure grayscale values of Western blot bands from drug-treated samples. The concentration-response curve is fitted to estimate the drug concentration corresponding to half the grayscale value.
Target protein remaining (%) refers to the percentage of target protein remaining in cells after treatment with protein degrader compounds.
Calculation method for target protein remaining (%): Use ImageJ software to measure grayscale values of Western blot bands from drug (protein degrader)-treated samples. The grayscale value of drug-treated bands is divided by that of internal control protein bands, and the resulting quotient is normalized to obtain the relative percentage of remaining target protein after protein degrader treatment.
Target protein degradation rate (%)=1−target protein remaining (%).

Degradation of substrate protein IRAK4 (substrate protein remaining %)	SMILES
A (0%≤substrate protein remaining %≤80%)	CC(C)(O)c1cc2nn(C3CCN(CC4CCN(c5ccc6c(c5)C(=O)N(N5CCC(=O)NC5=O)C6=O)CC4)CC3)cc2cc1NC(=O)c1cccc(C(F)(F)F)n1 [GT-05220, N-(2-(1-((1-(2-(2,4-dioxotetrahydropyrimidin-1(2H)-yl)-1,3-dioxoisoindolin-5-yl)piperidin-4-yl)methyl)piperidin-4-yl)-6-(2-hydroxypropan-2-yl)-2H-indazol-5-yl)-6-(trifluoromethyl) picolinamide]
A (0%≤substrate protein remaining %≤80%)	O=C1CCN(N2C(=O)c3ccc(N4CCN(C[C@H]5CC[C@H](n6cc(NC(=O)c7cnn8ccc(N9C[C@H]%10C[C@@H]9CO%10)nc78)c(C(F)F)n6)CC5)CC4)c(F)c3C2=O)C(=O)N1 [GT-05827, 5-((1R,4R)-2-oxa-5-azabicyclo[2.2.1]heptan-5-yl)-N-(3-(difluoromethyl)-1-((1r,4R)-4-((4-(2-(2,4-dioxotetrahydropyrimidin-1(2H)-yl)-4-fluoro-1,3-dioxoisoindolin-5-yl)piperazin-1-yl)methyl)cyclohexyl)-1H-pyrazol-4-yl)pyrazolo[1,5-a]pyrimidine-3-carboxamide]
A (0%≤substrate protein remaining %≤80%)	O=C1CCN(N2C(=O)c3ccc(N4CCC(N5CCC(CN6CCC(n7cc(NC(=O)c8coc(-c9ccnc(NCC%10CC%10)c9)n8)c(C(F)F)n7)CC6)CC5)CC4)cc3C2=O)C(=O)N1 [GT-05133, 2-(2-((cyclopropylmethyl)amino)pyridin-4-yl)-N-(3-(difluoromethyl)-1-(1-((1′-(2-(2,4-dioxotetrahydropyrimidin-1(2H)-yl)-1,3-dioxoisoindolin-5-yl)-[1,4′-bipiperidin]-4-yl)methyl)piperidin-4-yl)-1H-pyrazol-4-yl) oxazole-4-carboxamide]
A (0%≤substrate protein remaining %≤80%)	COc1cc2nn([C@H]3CC[C@H](CN4CCN(C5CCN(c6ccc7c(c6)C(=O)N(N6CCC(=O)NC6=O)C7=O)CC5(F)F)CC4)CC3)cc2cc1NC(=O)c1cccc(C(F)(F)F)c1 (some centres unmarked) [GT-08672, N-(2-((1r,4r)-4-((4-(1-(2-(2,4-dioxotetrahydropyrimidin-1(2H)-yl)-1,3-dioxoisoindolin-5-yl)-3,3-difluoropiperidin-4-yl)piperazin-1-yl)methyl)cyclohexyl)-6-methoxy-2H-indazol-5-yl)-3-(trifluoromethyl)benzamide]
A (0%≤substrate protein remaining %≤80%)	COc1cc2nn([C@H]3CC[C@H](CN4CCN(c5ccc6c(c5F)C(=O)N(N5CCC(=O)NC5=O)C6=O)CC4)CC3)cc2cc1NC(=O)c1cccc(C(F)(F)F)n1 [GT-08656, N-(2-((1r,4r)-4-((4-(2-(2,4-dioxotetrahydropyrimidin-1(2H)-yl)-4-fluoro-1,3-dioxoisoindolin-5-yl)piperazin-1-yl)methyl)cyclohexyl)-6-methoxy-2H-indazol-5-yl)-6-(trifluoromethyl) picolinamide]
A (0%≤substrate protein remaining %≤80%)	O=C1CCN(N2C(=O)c3ccc(N4CCC(CN5CCN(c6ccc7c(c6)nc(NC(=O)c6cccc(C(F)(F)F)c6)n7[C@H]6CC[C@@H](CO)CC6)CC5)CC4)cc3C2=O)C(=O)N1 [GT-05055, N-(5-(4-((1-(2-(2,4-dioxotetrahydropyrimidin-1(2H)-yl)-1,3-dioxoisoindolin-5-yl)piperidin-4-yl)methyl)piperazin-1-yl)-1-((1s,4s)-4-(hydroxymethyl)cyclohexyl)-1H-benzo[d]imidazol-2-yl)-3-(trifluoromethyl)benzamide]
A (0%≤substrate protein remaining %≤80%)	CC(C)(O)c1cc2nn(C3CCN(CC4CCN(C5CCN(c6ccc7c(c6)C(=O)N(N6CCC(=O)NC6=O)C7=O)CC5)CC4)CC3)cc2cc1NC(=O)c1cccc(C(F)(F)F)n1 [GT-05290, N-(2-(1-((1′-(2-(2,4-dioxotetrahydropyrimidin-1(2H)-yl)-1,3-dioxoisoindolin-5-yl)-[1,4′-bipiperidin]-4-yl)methyl)piperidin-4-yl)-6-(2-hydroxypropan-2-yl)-2H-indazol-5-yl)-6-(trifluoromethyl) picolinamide]
A (0%≤substrate protein remaining %≤80%)	COc1cc2nn([C@H]3CC[C@H](CN4CCN(c5cc(F)c6c(c5)C(=O)N(N5CCC(=O)NC5=O)C6=O)CC4)CC3)cc2cc1NC(=O)c1cccc(C(F)(F)F)n1 [GT-08657, N-(2-((1r,4r)-4-((4-(2-(2,4-dioxotetrahydropyrimidin-1(2H)-yl)-7-fluoro-1,3-dioxoisoindolin-5-yl)piperazin-1-yl)methyl)cyclohexyl)-6-methoxy-2H-indazol-5-yl)-6-(trifluoromethyl) picolinamide]
A (0%≤substrate protein remaining %≤80%)	O=C1CCN(N2C(=O)c3cccc(N4CCN(C[C@H]5CC[C@H](n6cc(NC(=O)c7cnn8ccc(N9C[C@H]%10C[C@@H]9CO%10)nc78)c(C(F)F)n6)CC5)CC4)c3C2=O)C(=O)N1 [GT-05241, 5-((1R,4R)-2-oxa-5-azabicyclo[2.2.1]heptan-5-yl)-N-(3-(difluoromethyl)-1-((1r,4R)-4-((4-(2-(2,4-dioxotetrahydropyrimidin-1(2H)-yl)-1,3-dioxoisoindolin-4-yl)piperazin-1-yl)methyl)cyclohexyl)-1H-pyrazol-4-yl)pyrazolo[1,5-a]pyrimidine-3-carboxamide]
A (0%≤substrate protein remaining %≤80%)	O=C1CCN(N2C(=O)c3ccc(N4CCC(N5CCC(CN6CCC(n7cc(NC(=O)c8coc(-c9ccnc(NCC(F)(F)F)c9)n8)c(C(F)F)n7)CC6)CC5)CC4)cc3C2=O)C(=O)N1 [GT-05144, N-(3-(difluoromethyl)-1-(1-((1′-(2-(2,4-dioxotetrahydropyrimidin-1(2H)-yl)-1,3-dioxoisoindolin-5-yl)-[1,4′-bipiperidin]-4-yl)methyl)piperidin-4-yl)-1H-pyrazol-4-yl)-2-(2-((2,2,2-trifluoroethyl)amino)pyridin-4-yl) oxazole-4-carboxamide]
A (0%≤substrate protein remaining %≤80%)	COc1cc2nn([C@H]3CC[C@H](CN4C5CCC4CN(c4ccc6c(c4)C(=O)N(N4CCC(=O)NC4=O)C6=O)C5)CC3)cc2cc1NC(=O)c1cccc(C(F)(F)F)n1 [GT-08654, N-(2-((1r,4r)-4-((3-(2-(2,4-dioxotetrahydropyrimidin-1(2H)-yl)-1,3-dioxoisoindolin-5-yl)-3,8-diazabicyclo[3.2.1]octan-8-yl)methyl)cyclohexyl)-6-methoxy-2H-indazol-5-yl)-6-(trifluoromethyl) picolinamide]
A (0%≤substrate protein remaining %≤80%)	COc1cc2nn([C@H]3CC[C@H](CN4CCN(c5ccc6c(c5)C(=O)N(N5CCC(=O)NC5=O)C6=O)CC4)CC3)cc2cc1NC(=O)c1cccc(C(F)(F)F)n1 [GT-08647, N-(2-((1r,4r)-4-((4-(2-(2,4-dioxotetrahydropyrimidin-1(2H)-yl)-1,3-dioxoisoindolin-5-yl)piperazin-1-yl)methyl)cyclohexyl)-6-methoxy-2H-indazol-5-yl)-6-(trifluoromethyl) picolinamide]
A (0%≤substrate protein remaining %≤80%)	COc1ccc2cn(C3CCN(Cc4ccc5c(c4)CN(N4CCC(=O)NC4=O)C5=O)CC3)nc2c1NC(=O)c1cccc(C(F)(F)F)c1 [GT-04884, N-(2-(1-((2-(2,4-dioxotetrahydropyrimidin-1(2H)-yl)-1-oxoisoindolin-5-yl)methyl)piperidin-4-yl)-6-methoxy-2H-indazol-7-yl)-3-(trifluoromethyl)benzamide]
A (0%≤substrate protein remaining %≤80%)	CC(C)Nc1cc(-n2ccc3cc(C#N)cnc32)ncc1C(=O)NC1CCN(Cc2ccc3c(c2)C(=O)N(N2CCC(=O)NC2=O)C3=O)CC1 [GT-05326, 6-(5-cyano-1H-pyrrolo[2,3-b]pyridin-1-yl)-N-(1-((2-(2,4-dioxotetrahydropyrimidin-1(2H)-yl)-1,3-dioxoisoindolin-5-yl)methyl)piperidin-4-yl)-4-((isopropyl)amino) nicotinamide]
